Data from PubChem BioAssay (NCI).
Where “and” joins values, the source holds several entries; their conditions need not be identical. Identical values can stand only once.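 A five-concentration, 48-hour dose response in 96-well plates underlies each endpoint, interpolated linearly between surrounding concentrations. Abbreviation: GI50, concentration required for 50% inhibition of growth. TGI denotes the concentration required for complete inhibition of growth.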

Assays:
Assay in all cases: NCI anticancer screen, dose series, 48 h
CCRF-CEM leukemia = tested on: CCRF-CEM leukemia
HOP-62 NSCLC = tested on: HOP-62 NSCLC
HS 578T breast = tested on: HS 578T breast
A498 renal = tested on: A498 renal
MDA-MB-435 = tested on: MDA-MB-435
SK-OV-3 ovarian = tested on: SK-OV-3 ovarian
KM12 colon = tested on: KM12 colon
SF-268 CNS = tested on: SF-268 CNS
UO-31 renal = tested on: UO-31 renal
NCI/ADR-RES ovarian = tested on: NCI/ADR-RES ovarian
DU-145 prostate = tested on: DU-145 prostate
SK-MEL-5 melanoma = tested on: SK-MEL-5 melanoma
HCT-15 colon = tested on: HCT-15 colon
ACHN renal = tested on: ACHN renal
EKVX NSCLC = tested on: EKVX NSCLC
NCI-H226 lung = tested on: NCI-H226 lung
OVCAR-5 ovarian = tested on: OVCAR-5 ovarian
OVCAR-3 ovarian = tested on: OVCAR-3 ovarian
A549 NSCLC = tested on: A549 NSCLC
SF-295 CNS = tested on: SF-295 CNS
UACC-62 melanoma = tested on: UACC-62 melanoma
SN12C renal = tested on: SN12C renal
U251 CNS = tested on: U251 CNS
UACC-257 melanoma = tested on: UACC-257 melanoma
LOX IMVI melanoma = tested on: LOX IMVI melanoma
IGROV1 ovarian = tested on: IGROV1 ovarian
MOLT-4 leukemia = tested on: MOLT-4 leukemia
OVCAR-4 ovarian = tested on: OVCAR-4 ovarian
HT29 colon = tested on: HT29 colon
CAKI-1 renal = tested on: CAKI-1 renal
NCI-H23 lung = tested on: NCI-H23 lung
HCT-116 colon = tested on: HCT-116 colon
M14 melanoma = tested on: M14 melanoma
SK-MEL-28 melanoma = tested on: SK-MEL-28 melanoma
OVCAR-8 ovarian = tested on: OVCAR-8 ovarian
NCI-H460 lung = tested on: NCI-H460 lung
K-562 leukemia = tested on: K-562 leukemia
786-0 renal = tested on: 786-0 renal
SNB-75 CNS = tested on: SNB-75 CNS
HOP-92 NSCLC = tested on: HOP-92 NSCLC
COLO 205 colon = tested on: COLO 205 colon
PC-3 prostate = tested on: PC-3 prostate
T-47D breast = tested on: T-47D breast
SF-539 CNS = tested on: SF-539 CNS
SW-620 colon = tested on: SW-620 colon
MCF7 breast = tested on: MCF7 breast
HCC-2998 colon = tested on: HCC-2998 colon
SNB-19 CNS = tested on: SNB-19 CNS
MDA-MB-231 breast = tested on: MDA-MB-231 breast
TK-10 renal = tested on: TK-10 renal
SR leukemia = tested on: SR leukemia
RXF 393 renal = tested on: RXF 393 renal
NCI-H522 lung = tested on: NCI-H522 lung
MALME-3M melanoma = tested on: MALME-3M melanoma
RPMI-8226 leukemia = tested on: RPMI-8226 leukemia

COC(=O)c1ccc2c(c1)n(Cc1ccc3ccccc3c1)c[n+]2Cc1ccc2ccccc2c1
GI50 (CCRF-CEM leukemia): 1.79 µM | TGI (CCRF-CEM leukemia): 4.46 µM | GI50 (HOP-62 NSCLC): 1.8 µM | TGI (HOP-62 NSCLC): 4.28 µM | GI50 (HS 578T breast): 1.76 µM | TGI (HS 578T breast): 4.65 µM | GI50 (A498 renal): 2.23 µM | TGI (A498 renal): 6.49 µM | GI50 (MDA-MB-435): 1.33 µM | TGI (MDA-MB-435): 2.75 µM | GI50 (SK-OV-3 ovarian): 2.82 µM | TGI (SK-OV-3 ovarian): 13.4 µM | GI50 (KM12 colon): 1.37 µM | TGI (KM12 colon): 2.83 µM | GI50 (SF-268 CNS): 1.5 µM | TGI (SF-268 CNS): 3.02 µM | GI50 (UO-31 renal): 13 µM | TGI (UO-31 renal): 63.9 µM | GI50 (NCI/ADR-RES ovarian): 24 µM | TGI (NCI/ADR-RES ovarian): > 100 µM | GI50 (DU-145 prostate): 1.77 µM | TGI (DU-145 prostate): 3.52 µM | GI50 (SK-MEL-5 melanoma): 1.46 µM | TGI (SK-MEL-5 melanoma): 2.78 µM | GI50 (HCT-15 colon): 4.48 µM | TGI (HCT-15 colon): 26.8 µM | GI50 (ACHN renal): 10.2 µM | TGI (ACHN renal): 29.8 µM | GI50 (EKVX NSCLC): 3.01 µM | TGI (EKVX NSCLC): 20.4 µM | GI50 (NCI-H226 lung): 1.96 µM | TGI (NCI-H226 lung): 4.44 µM | GI50 (OVCAR-5 ovarian): 2.12 µM | TGI (OVCAR-5 ovarian): 13.7 µM | GI50 (OVCAR-3 ovarian): 1.37 µM | TGI (OVCAR-3 ovarian): 2.78 µM | GI50 (A549 NSCLC): 11.3 µM | TGI (A549 NSCLC): 36.8 µM | GI50 (SF-295 CNS): 1.86 µM | TGI (SF-295 CNS): 5.56 µM

CCOC(=O)c1c(SC(=O)/C=C/c2ccccc2)n(-c2ccccc2)c(=S)n(-c2ccccc2)c1=O
TGI (UACC-62 melanoma): > 100 µM | TGI (SN12C renal): > 100 µM | TGI (CCRF-CEM leukemia): > 100 µM | TGI (HOP-62 NSCLC): > 100 µM | TGI (HS 578T breast): > 100 µM | TGI (A498 renal): > 100 µM | TGI (U251 CNS): > 100 µM | TGI (MDA-MB-435): > 100 µM | TGI (UACC-257 melanoma): > 100 µM | TGI (LOX IMVI melanoma): > 100 µM | TGI (SK-OV-3 ovarian): > 100 µM | TGI (IGROV1 ovarian): > 100 µM | TGI (MOLT-4 leukemia): > 100 µM | TGI (OVCAR-4 ovarian): > 100 µM | TGI (HT29 colon): > 100 µM | TGI (KM12 colon): > 100 µM | TGI (SF-268 CNS): > 100 µM | TGI (CAKI-1 renal): > 100 µM | TGI (NCI-H23 lung): > 100 µM | TGI (HCT-116 colon): > 100 µM | TGI (M14 melanoma): > 100 µM | TGI (NCI/ADR-RES ovarian): > 100 µM | TGI (DU-145 prostate): > 100 µM | TGI (SK-MEL-28 melanoma): > 100 µM | TGI (OVCAR-8 ovarian): > 100 µM | TGI (NCI-H460 lung): > 100 µM | TGI (K-562 leukemia): > 100 µM | TGI (786-0 renal): > 100 µM | TGI (SNB-75 CNS): > 100 µM | TGI (HOP-92 NSCLC): > 100 µM | TGI (COLO 205 colon): > 100 µM | TGI (HCT-15 colon): > 100 µM | TGI (PC-3 prostate): > 100 µM | TGI (T-47D breast): > 100 µM | TGI (ACHN renal): > 100 µM | TGI (EKVX NSCLC): > 100 µM | TGI (NCI-H226 lung): > 100 µM | TGI (SF-539 CNS): > 100 µM | TGI (OVCAR-5 ovarian): > 100 µM | TGI (SW-620 colon): > 100 µM | TGI (MCF7 breast): > 100 µM | TGI (HCC-2998 colon): > 100 µM | TGI (OVCAR-3 ovarian): > 100 µM | TGI (SNB-19 CNS): > 100 µM | TGI (MDA-MB-231 breast): > 100 µM | TGI (TK-10 renal): > 100 µM | TGI (A549 NSCLC): > 100 µM | TGI (SF-295 CNS): > 100 µM | TGI (SR leukemia): > 100 µM | TGI (RXF 393 renal): > 100 µM | TGI (NCI-H522 lung): > 100 µM | TGI (MALME-3M melanoma): > 100 µM

CC(=O)OC[C@]12CC[C@H]3[C@@H](C[C@H]4O[C@]45CC=CC(=O)[C@]35C)[C@]1(O)CC[C@@]2(O)[C@@](C)(O)C1CC(C)=C(C)C(=O)O1 (stereo not given in full)
TGI (SN12C renal): > 32 µM | TGI (UACC-257 melanoma): > 32.8 µM | TGI (SK-OV-3 ovarian): > 23.7 µM | TGI (MOLT-4 leukemia): > 36.2 µM | TGI (OVCAR-4 ovarian): > 34.9 µM | TGI (UO-31 renal): > 25 µM | GI50 (NCI/ADR-RES ovarian): > 23.6 µM | TGI (NCI/ADR-RES ovarian): > 100 µM | TGI (DU-145 prostate): > 32.8 µM | TGI (OVCAR-8 ovarian): > 32.1 µM | TGI (K-562 leukemia): > 100 µM | TGI (HCT-15 colon): > 33.6 µM | TGI (PC-3 prostate): > 26.1 µM | TGI (EKVX NSCLC): > 30.4 µM | TGI (NCI-H226 lung): > 20 µM | TGI (OVCAR-5 ovarian): > 20.1 µM | GI50 (RPMI-8226 leukemia): > 100 µM | TGI (RPMI-8226 leukemia): > 100 µM | TGI (MCF7 breast): > 25.3 µM | TGI (SNB-19 CNS): > 35.4 µM | TGI (MDA-MB-231 breast): > 23.6 µM | TGI (SF-295 CNS): > 32.5 µM | TGI (SR leukemia): > 38 µM

CC(=O)OCC1OC(n2c(-c3ccccc3)cc(-c3ccccc3)c(C#N)c2=O)C(OC(C)=O)C(OC(C)=O)C1OC(C)=O (stereo not given)
GI50 (SNB-75 CNS): 22 µM and 98.5 µM | TGI (SNB-75 CNS): > 100 µM | GI50 (RPMI-8226 leukemia): 16 µM and 39.7 µM | TGI (RPMI-8226 leukemia): > 100 µM | TGI (RXF 393 renal): > 100 µM
